Laboratory results published in paper PMC8599359 (Molecular Neurobiology, 2021).
Entries after “also recorded” stand apart in the source; their conditions may differ.

Columns and labels:
[1] = tested on: C3H/HeJ mice pups, hippocampus; test: Magnetic resonance spectroscopy (1H MRS) of pups; assay type: in vivo, mouse
Procedure: After DTI measurements, the same animals were scanned by ^1H MRS to measure metabolite concentrations. N-Acetylaspartate (NAA), total choline (tCho), and total creatine (tCre) were measured in HI region. Animals from both groups, DTG and control, were scanned. SemiLASER localization with timing parameters (TE/TR = 40/4000 ms, 576 averages, 2048 points) was used to obtain MRS data. Voxel was located on HI. All first- and second-order shim terms were automatically adjusted using MAPSHIM® (Bruker, Billerica, MA). A final shim performed manually, if necessary, to achieve a water line width of 10–15 Hz. The water signal was suppressed by variable power radiofrequency (RF) pulses with optimized relaxation delays (VAPOR). MRS data were quantified using LCModel (LCMODEL Inc., CA). Results were expressed as a percentage of the sum of all 3 metabolites as a semi-quantitative method for reporting metabolite concentrations in institutional units (I.U.). Glycerophosphocholine and phosphocholine were added and reported as total choline-containing compounds.

[2] = tested on: C3H/HeJ mice pups; test: Pregnancy and postnatal outcomes after in utero exposure; assay type: in vivo, mouse
Text: For all animal experiments, C3H/HeJ (10–12 weeks of age, male and female) were purchased from the Jackson Laboratory (Bar Harbor, ME), and were housed in microisolator cages containing autoclaved corncob bedding, and maintained on a 12‐h light‐dark cycle in climate‐controlled laboratory animal facilities approved by the University of Nebraska Medical Center Institutional Animal Care and Use Committee (IACUC). Mice were given free access to irradiated rodent feed (TD. 180,911, Envigo Teklad diet, Madison, WI) and sterile water. Animals were acclimated to the environment for approximately 7–14 days to determine that they were healthy based on observed behavior and weight gain. A female was placed with a male overnight for the purpose of timed matings. The following morning males were removed from the cages and positive vaginal plugs were identified. […] The time of conception was considered to be midnight on the evening of the mating. Treatment of plugged females was started at the morning of the day of plug detection (gestation day (GD) 0.5).
Mice pups at this stage of development (PND 28) are equivalent to humans of 2 years of age. […] Pregnant dams were randomly assigned to DTG or vehicle group. […] Survival rate of pups was 100% between PND 4 and 21 in both groups. Further body weights of pups were measured during preweaning duration. […] Furthermore, between age PND 28 and 34, live animals were evaluated for biochemical changes in the brain by magnetic resonance imaging (MRI) (Fig. 5D–F). All the tests were performed around 6 days post weaning to avoid confounding effect of stress related to separation from mother. Microstructural and metabolite measurements were conducted in live pups using bioimaging methods, diffusion tensor imaging (DTI), and magnetic resonance spectroscopy (^1H MRS), respectively (Fig. 5D–F). First, pups were scanned using DTI to determine microstructural changes in six different brain regions, hippocampus (HI), cortex (CT), striatum (ST), thalamus (TH), hypothalamus (HY), and cerebellum (CE). […] As FA represents anisotropic movement of water molecules along the axons, reduction in FA values indicated axonal and/or myelin damage in developing brain of adolescent pups in the DTG-treated group. […] This allowed evaluation of sex as a biological variant (Supplementary Fig. 4). […] Further, the same pups were scanned using ^1H MRS to measure N-acetylaspartate (NAA), total choline (tCho), and total creatine (tCre) in hippocampus (HI) only (Fig. 5F). NAA is a highly concentrated metabolite in the CNS and is a neuron-specific metabolite that acts as a non-invasive ^1H MRS marker for neuronal integrity, health, and cell number. […] Similar to DTI, sex differences were evaluated in the ^1H MRS study (Supplementary Fig. 5).

[3] = tested on: THP-1 cells; test: MTT cytotoxicity assay; assay type: cell-based; details: THP-1 cells, 1, 10 or 100 µM, 18 h
Procedure: THP-1 cells were plated in 96-well plates at a density of 0.08 × 10^6 cells per well. […] Vehicle-treated cells were used as controls. For each treatment, twelve samples were utilized. Cells were washed with PBS and incubated with 100 μL/well of MTT solution (5 mg/mL) for 45 min at 37 °C. After incubation, MTT solution was removed, and DMSO (200 μL) was added to each well. Absorbance was measured at 490 nm on a Molecular Devices SpectraMax M3 plate reader with SoftMax […].2 software (Sunnyvale, CA). Absorbance was compared to that of control cells to determine cytotoxicity.

[4] = tested on: MMP; test: Broad-spectrum MMP activity in embryonic brain (fluorometric substrate); assay type: in vivo, mouse; details: GD 16.5, dams 50 mg/kg/day oral GD 0.5-15.5, compared to controls
Procedure: Broad-spectrum MMP activity was measured in whole brain tissue homogenates of normal, viable embryos (GD 16.5) using a quenched fluorogenic substrate, OMNIMMP® RED (BML-P277-0100, Enzo Life Sciences). Whole brain tissues were isolated from randomly selected embryos from different dams for both DTG and control groups. Tissues were homogenized in NP-40 lysis buffer using a Qiagen TissueLyzer II (Valencia, CA). Tissue lysates were centrifuged at 16,000 g at 4 °C for 20 min and supernatants were collected. Total protein levels in each sample were quantitated using Pierce™ BCA Protein Assay Kit (Thermo Fisher Scientific, Waltham, MA). The assays were performed in a 96-well, black, flat, microplate format. Fifty micrograms of protein for each sample was incubated with buffer (BML-KI175-0020, Enzo Life Sciences) at 37 °C for 60 min. Each sample was platted in duplicates. Later, reaction was started by adding fluorogenic substrate. Plate was read at similar instructions mentioned above for fluorometric substrate assay. Ilomastat (GM6001; broad-spectrum MMP inhibitor, ab120845, abcam) was added to randomly selected protein samples in additional wells at 20 µM concentration as an assay control.

[5] = dams 50 mg/kg/day oral through entire gestation

`C[C@@H]1CCO[C@H]2Cn3cc(C(=O)NCc4ccc(F)cc4F)c(=O)c(O)c3C(=O)N12` [DTG, Dolutegravir] was tested, and the “NAA levels in hippocampus vs control” value ([1]; PND 28-34, all pups) was “significantly reduced”, the “tCho levels in hippocampus vs control” value ([1]; PND 28-34, all pups) was “significant increase” and the “tCre (internal reference) in hippocampus vs control” value ([1]; PND 28-34, all pups) was “No differences”. The “NAA in hippocampus vs control” value ([1]; female pups) was “significantly reduced”, the “Average body weight of pups” value ([2]; PND 12, in utero exposure) was 5.1 ± 0.4 g and the “Average body weight of pups” value ([2]; PND 21, in utero exposure) was 7.5 ± 0.4 g. The “No. of female pups delivered per litter” value [2, 5] was 1.2, the “No. of male pups delivered per litter” value [2, 5] was 2.2 and the “No. of pups delivered per litter (average litter size)” value [2, 5] was 3.5. The “male to female ratio per litter” value [2, 5] was 2.0, the “% pup survival (PND 4 to PND 21)” value ([2]; in utero exposure) was 100% and the “% pup survival (birth to PND 4)” value ([2]; in utero exposure) was 92.8%. The “structural malformations or variations in newborn pups” value ([2]; in utero exposure) was “no structural malformations or variations”, the “Cytotoxicity (cellular viability, MTT)” value [3] was “Cytotoxicity was not observed at any concentration; also recorded: no DTG-induced cytotoxicity” and the “Broad-spectrum MMP activity in embryonic brain” value [4] was “significantly inhibited”.
